Results reported in patent US6737383B1, “Herbicidal oxadiazolidines” (priority 1999, dated 2004).

Tests used:
blackgrass = test: Test B pre/postemergence blackgrass; format: in vivo, Alopecurus myosuroides
How it was run: (§1)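 Herbicidal effect was estimated by eye on a ten-point control scale after plants spent twelve to sixteen days in a greenhouse following soil or foliar treatment. Foliar sprays targeted plants at one to four leaves; all doses were formulated in a non-phytotoxic solvent with surfactant.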

surinam grass = test: Test B pre/postemergence surinam grass; format: in vivo, Brachiaria decumbens
How it was run: as §1

cocklebur = test: Test B pre/postemergence cocklebur; format: in vivo, Xanthium strumarium
How it was run: as §1

corn = test: Test B pre/postemergence corn; format: in vivo, Zea mays
How it was run: as §1

crabgrass = test: Test B pre/postemergence crabgrass; format: in vivo, Digitaria sanguinalis
How it was run: as §1

rape = test: Test B pre/postemergence rape; format: in vivo, Brassica napus
How it was run: as §1

soybean = test: Test B pre/postemergence soybean; format: in vivo, Glycine max
How it was run: as §1

sugar beet = test: Test B pre/postemergence sugar beet; format: in vivo, Beta vulgaris
How it was run: as §1

velvetleaf = test: Test B pre/postemergence velvetleaf; format: in vivo, Abutilon theophrasti
How it was run: as §1

wheat = test: Test B pre/postemergence wheat; format: in vivo, Triticum aestivum
How it was run: as §1

wild oat = test: Test B pre/postemergence wild oat; format: in vivo, Avena fatua
How it was run: as §1

purple nutsedge = test: Test B pre/postemergence purple nutsedge; format: in vivo, Cyperus rotundus
How it was run: as §1

rice = test: Test B flood test rice; format: in vivo, Oryza sativa
How it was run: (§2)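 Each value is a visual injury score relative to controls, with 10 meaning complete control and 0 no effect. Evaluation took place twelve to sixteen days after the 2-leaf-stage plants were treated and kept in the greenhouse.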

smallflower flatsedge = test: Test B flood test smallflower flatsedge; format: in vivo, Cyperus difformis
How it was run: as §2

duck salad = test: Test B flood test duck salad; format: in vivo, Heteranthera limosa
How it was run: as §2

bamyardgrass = test: Test B flood test barnyardgrass; format: in vivo, Echinochloa crus-galli
How it was run: as §2

[1] = Postemergence, Rate 250 g/ha, scale 0 to 10
[2] = Postemergence, Rate 500 g/ha, scale of 0 to 10 where 0 is no effect and 10 is complete control
[3] = Preemergence, Rate 62 g/ha, scale of 0 to 10 where 0 is no effect and 10 is complete control
[4] = Preemergence, Rate 125 g/ha, scale of 0 to 10 where 0 is no effect and 10 is complete control
[5] = Preemergence, Rate 250 g/ha, scale 0 to 10, 0 is no effect, 10 is complete control
[6] = Preemergence, Rate 500 g/ha, scale 0 to 10, 0 is no effect, 10 is complete control
[7] = Rate 62 g/ha, Postemergence, scale 0 to 10 (0 no effect, 10 complete control)
[8] = Rate 125 g/ha, Postemergence, scale 0 to 10, 0 is no effect, 10 is complete control
[9] = Rate 62 g/ha, flood test species, Pre-emergence, visual evaluation after twelve to sixteen days
[10] = Rate 125 g/ha, under heading Pre-emergence, flood test species, visual evaluation after twelve to sixteen days
[11] = Rate 250 g/ha, Pre-emergence (flood test species), scale 0 to 10, 0 is no effect, 10 is complete control
[12] = Rate 500 g/ha, Pre-emergence, flood test species, scale 0 to 10 (0 no effect, 10 complete control)

CC(C)N(C(=O)n1oc(=O)n(CNC(=O)c2ccccc2)c1=O)c1ccc(F)cc1 [Compound 445]
Blackgrass plant response rating (blackgrass; [1]): 0
Blackgrass plant response rating (blackgrass; [2]): 0
Plant response rating, Blackgrass (blackgrass; [3]): 0
Plant response rating, Blackgrass (blackgrass; [4]): 0
Blackgrass plant response rating (blackgrass; [5]): 0
Blackgrass plant response rating (blackgrass; [6]): 1
Blackgrass plant response rating (blackgrass; [7]): 0
Blackgrass plant response rating (blackgrass; [8]): 0
B. signalgrass plant response rating (surinam grass; Postemergence, Rate 250 g/ha, scale 0 to 10, 0 no effect, 10 complete control): 0
B. signalgrass plant response rating (surinam grass; [2]): 0
Plant response rating, B. signalgrass (surinam grass; [3]): 0
Plant response rating, B. signalgrass (surinam grass; [4]): 0
B. signalgrass plant response rating (surinam grass; [5]): 2
B. signalgrass plant response rating (surinam grass; [6]): 3
B. signalgrass plant response rating (surinam grass; [7]): 0
B. signalgrass plant response rating (surinam grass; [8]): 0
Cocklebur plant response rating (cocklebur; [1]): 2
Cocklebur plant response rating (cocklebur; [2]): 2
Plant response rating, Cocklebur (cocklebur; [3]): 0
Plant response rating, Cocklebur (cocklebur; [4]): 0
Cocklebur plant response rating (cocklebur; [5]): 0
Cocklebur plant response rating (cocklebur; [7]): 0
Cocklebur plant response rating (cocklebur; [8]): 2
Corn plant response rating (corn; [1]): 0
Corn plant response rating (corn; [2]): 0
Plant response rating, Corn (corn; [3]): 0
Plant response rating, Corn (corn; [4]): 0
Corn plant response rating (corn; [5]): 0
Corn plant response rating (corn; [6]): 0
Corn plant response rating (corn; [7]): 0
Corn plant response rating (corn; [8]): 0
Crabgrass plant response rating (crabgrass; [1]): 3
Crabgrass plant response rating (crabgrass; [2]): 7
Plant response rating, Crabgrass (crabgrass; [3]): 0
Plant response rating, Crabgrass (crabgrass; [4]): 2
Crabgrass plant response rating (crabgrass; [5]): 3
Crabgrass plant response rating (crabgrass; [6]): 9
Crabgrass plant response rating (crabgrass; [7]): 0
Crabgrass plant response rating (crabgrass; [8]): 1
Rape plant response rating (rape; [1]): 2
Rape plant response rating (rape; [2]): 2
Plant response rating, Rape (rape; [3]): 0
Plant response rating, Rape (rape; [4]): 0
Rape plant response rating (rape; [5]): 0
Rape plant response rating (rape; [6]): 2
Rape plant response rating (rape; [7]): 0
Rape plant response rating (rape; [8]): 0
Soybean plant response rating (soybean; [1]): 1
Soybean plant response rating (soybean; [2]): 2
Plant response rating, Soybean (soybean; [3]): 0
Plant response rating, Soybean (soybean; [4]): 0
Soybean plant response rating (soybean; [6]): 0
Soybean plant response rating (soybean; [7]): 1
Soybean plant response rating (soybean; [8]): 1
Sugarbeets plant response rating (sugar beet; [1]): 0
Sugarbeets plant response rating (sugar beet; [2]): 0
Plant response rating, Sugarbeets (sugar beet; [3]): 0
Plant response rating, Sugarbeets (sugar beet; [4]): 0
Sugarbeets plant response rating (sugar beet; [5]): 0
Sugarbeets plant response rating (sugar beet; [6]): 0
Sugarbeets plant response rating (sugar beet; [7]): 0
Sugarbeets plant response rating (sugar beet; [8]): 0
Velvetleaf plant response rating (velvetleaf; [1]): 3
Velvetleaf plant response rating (velvetleaf; [2]): 5
Plant response rating, Velvetleaf (velvetleaf; [3]): 0
Plant response rating, Velvetleaf (velvetleaf; [4]): 0
Velvetleaf plant response rating (velvetleaf; [5]): 2
Velvetleaf plant response rating (velvetleaf; [6]): 3
Velvetleaf plant response rating (velvetleaf; [7]): 0
Velvetleaf plant response rating (velvetleaf; [8]): 2
Wheat plant response rating (wheat; [1]): 0
Wheat plant response rating (wheat; [2]): 0
Plant response rating, Wheat (wheat; [3]): 0
Plant response rating, Wheat (wheat; [4]): 0
Wheat plant response rating (wheat; [5]): 0
Wheat plant response rating (wheat; [6]): 0
Wheat plant response rating (wheat; [7]): 0
Wheat plant response rating (wheat; [8]): 0
Wild oats plant response rating (wild oat; [1]): 0
Wild oats plant response rating (wild oat; [2]): 0
Plant response rating, Wild oats (wild oat; [3]): 0
Plant response rating, Wild oats (wild oat; [4]): 0
Wild oats plant response rating (wild oat; [5]): 0
Wild oats plant response rating (wild oat; [6]): 0
Wild oats plant response rating (wild oat; [7]): 0
Wild oats plant response rating (wild oat; [8]): 0
Nutsedge plant response rating (purple nutsedge; [1]): 0
Nutsedge plant response rating (purple nutsedge; [2]): 0
Plant response rating, Nutsedge (purple nutsedge; [3]): 0
Plant response rating, Nutsedge (purple nutsedge; [4]): 0
Nutsedge plant response rating (purple nutsedge; [5]): 0
Nutsedge plant response rating (purple nutsedge; [6]): 0
Nutsedge plant response rating (purple nutsedge; [7]): 0
Nutsedge plant response rating (purple nutsedge; [8]): 0
Plant response rating, Rice (0 to 10 scale, 0 is no effect, 10 is complete control) (rice; [9]): 0
Rice plant response rating (0 to 10 scale, 0 is no effect, 10 is complete control) (rice; [10]): 0
Rice plant response rating (rice; [11]): 0
Rice plant response rating (rice; [12]): 0
Plant response rating, S. Flatsedge (0 to 10 scale, 0 is no effect, 10 is complete control) (smallflower flatsedge; [9]): 0
S. Flatsedge plant response rating (0 to 10 scale, 0 is no effect, 10 is complete control) (smallflower flatsedge; [10]): 0
S. Flatsedge plant response rating (smallflower flatsedge; [11]): 0
S. Flatsedge plant response rating (smallflower flatsedge; [12]): 0
Plant response rating, Ducksalad (0 to 10 scale, 0 is no effect, 10 is complete control) (duck salad; [9]): 0
Ducksalad plant response rating (0 to 10 scale, 0 is no effect, 10 is complete control) (duck salad; [10]): 0
Ducksalad plant response rating (duck salad; [11]): 0
Ducksalad plant response rating (duck salad; [12]): 0
Plant response rating, Barnyardgrass (0 to 10 scale, 0 is no effect, 10 is complete control) (bamyardgrass; [9]): 0
Barnyardgrass plant response rating (0 to 10 scale, 0 is no effect, 10 is complete control) (bamyardgrass; [10]): 0
Barnyardgrass plant response rating (bamyardgrass; [11]): 0
Barnyardgrass plant response rating (bamyardgrass; [12]): 0
